Source: patent US8754073B2, “Substituted piperazino-dihydrothienopyrimidines” (Boehringer Ingelheim International GmbH, priority 2007, dated 2014)

Biological target: PDE4B (Homo sapiens, UniProt Q07343)
Test: Scintillation Proximity Assay (SPA) of PDE4B enzyme activity ([H3]-cAMP cleavage)
Assay type: biochemical
Details: test substance 1 μM; one-hour incubation of [H3]-cAMP with PDE4B enzyme at 30° C.
In short: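 SPA read-out: [H3]-cAMP incubated with PDE4B in assay buffer for 1 h at 30 °C, with and without test compound at 1 μM. Reaction stopped by adding yttrium silicate beads that bind the [H3]-AMP product; after 45 min settling, scintillation counted. Value is % inhibition at 1 μM.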

Sequence of PDE4B (Q07343 whole entry, species assumed): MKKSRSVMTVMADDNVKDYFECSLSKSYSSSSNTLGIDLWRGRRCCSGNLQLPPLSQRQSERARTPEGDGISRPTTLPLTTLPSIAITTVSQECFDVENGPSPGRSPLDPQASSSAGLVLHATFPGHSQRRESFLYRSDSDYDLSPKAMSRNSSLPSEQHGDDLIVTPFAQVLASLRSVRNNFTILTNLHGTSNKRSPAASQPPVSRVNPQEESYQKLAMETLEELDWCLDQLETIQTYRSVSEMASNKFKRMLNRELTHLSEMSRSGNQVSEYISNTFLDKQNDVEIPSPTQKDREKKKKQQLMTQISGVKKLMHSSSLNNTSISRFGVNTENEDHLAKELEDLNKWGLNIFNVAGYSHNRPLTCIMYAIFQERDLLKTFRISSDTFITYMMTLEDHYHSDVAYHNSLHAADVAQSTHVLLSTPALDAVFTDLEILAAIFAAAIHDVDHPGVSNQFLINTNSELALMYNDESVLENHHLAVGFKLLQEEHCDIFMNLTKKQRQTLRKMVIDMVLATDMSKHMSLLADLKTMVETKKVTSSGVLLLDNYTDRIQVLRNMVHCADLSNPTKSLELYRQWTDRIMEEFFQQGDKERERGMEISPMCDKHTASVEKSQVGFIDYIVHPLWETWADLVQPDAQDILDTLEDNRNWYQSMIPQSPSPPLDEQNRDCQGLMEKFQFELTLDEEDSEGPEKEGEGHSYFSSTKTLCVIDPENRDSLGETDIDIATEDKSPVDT

inhibition at 1 µM [%]	Compound
94	O=C1Nc2ccccc2C2(CCN(c3nc4c(c(Nc5cccc(F)c5)n3)[S+]([O-])CC4)CC2)O1 (stereo not drawn) [Example 80]
86	CC(C)c1noc(C2CCN(c3nc4c(c(N[C@@H](CO)C(C)C)n3)[S+]([O-])CC4)CC2)n1 (stereo partly drawn) [Example 160]
74	[O-][S+]1CCc2nc(N3CCC4(CC3)OCc3ccccc34)nc(NC3CCOCC3)c21 (stereo not drawn) [Example 125]
94	[O-][S+]1CCc2nc(N3CCC(c4cc(Cl)cc(Cl)c4)CC3)nc(NC3(CO)CC3)c21 (stereo not drawn) [Example 91, (1-{2-[4-(3,5-Dichlorophenyl)-Piperidin-1-Yl]-5-Oxo-6,7-Dihydro-5H-5λ^4-Thieno[3,2-d]Pyrimidin-4-Ylamino}-Cyclopropyl)-Methanol]
92	Cc1noc(C2CCN(c3nc4c(c(NC5(CO)CC5)n3)[S+]([O-])CC4)CC2)n1 (stereo not drawn) [Example 38]
93	COc1ccc(C2CCN(c3nc4c(c(N[C@@H](CO)C(C)C)n3)[S+]([O-])CC4)CC2)cc1 (stereo partly drawn) [Example 148]
93	[O-][S+]1CCc2nc(N3CCC(c4cccc(Cl)c4)CC3)nc(NC3CCOCC3)c21 (stereo not drawn) [Example 69]
96	CCc1[nH]c2ccc(F)cc2c1C1CCN(c2nc3c(c(N[C@H]4CCC(=O)N(C)C4)n2)[S+]([O-])CC3)CC1 (stereo partly drawn) [Example 52]

Same assay, conditions: test substance 1 μM; one-hour incubation with [H3]-cAMP at 30° C.

inhibition at 1 µM [%]	Compound
94	CC(C)(C)OC(=O)NC1CC1Nc1nc(N2CCC(c3ccc(Cl)cc3)CC2)nc2c1[S+]([O-])CC2 (stereo not drawn) [Example 231, tert-butyl (2-{2-[4-(4-chlorophenyl)-piperidin-1-yl]-5-oxo-6,7-dihydro-5H-5λ^4-thieno[3,2-d]pyrimidin-4-ylamino}-cyclopropyl)-carbamidate]
80	CC(C)(NC(=O)c1ccc(C2CCN(c3nc4c(c(NC5CCOCC5)n3)[S+]([O-])CC4)CC2)cc1)c1ccncc1 (stereo not drawn) [Example 223]
89	[O-][S+]1CCc2nc(N3CCC(c4cc(-c5cccs5)[nH]n4)CC3)nc(Nc3cccc(F)c3)c21 (stereo not drawn) [Example 287]
96	COCC1(c2ccc(Cl)cc2)CCN(c2nc3c(c(N[C@H]4CCC(=O)N(C)C4)n2)[S+]([O-])CC3)CC1 (stereo partly drawn) [Example 260, 5-{2-[4-(4-chlorophenyl)-4-methoxymethylpiperidin-1-yl]-5-oxo-6,7-dihydro-5H-5μ^4-thieno[3,2-d]pyrimidin-4-ylamino}-1-methylpiperidin-2-one]
81	CC(C)[C@H](CO)Nc1nc(N2CCC(O)(c3ccc(Cl)cc3)CC2)nc2c1[S+]([O-])CC2 (stereo partly drawn) [Example 296]
83	[O-][S+]1CCc2nc(N3CCC(c4cc(-c5cccs5)[nH]n4)CC3)nc(NC3CCOCC3)c21 (stereo not drawn) [Example 284]
92	[O-][S+]1CCc2nc(N3CCC(OCc4ccccc4)(c4ccc(Cl)cc4)CC3)nc(NC3(CO)CC3)c21 (stereo not drawn) [Example 320]
90	[O-][S+]1CCc2nc(N3CCC(c4cc(-c5cccs5)[nH]n4)CC3)nc(NC3(CO)CC3)c21 (stereo not drawn) [Example 285]
94	COCC(=O)N(C)CC1(c2ccccc2)CCN(c2nc3c(c(NC4CCOCC4)n2)[S+]([O-])CC3)CC1 (stereo not drawn) [Example 323, 2-methoxy-N-methyl-N-{1-[5-oxo-4-(tetrahydropyran-4-ylamino)-6,7-dihydro-5H-5λ^4-thieno[3,2-d]pyrimidin-2-yl]-4-phenylpiperidin-4-ylmethyl}-acetamide]
82	CN1C[C@@H](Nc2nc(N3CCC(c4n[nH]c5ccccc45)CC3)nc3c2[S+]([O-])CC3)CCC1=O (stereo partly drawn) [Example 219]
94	CC(C)c1ccc(OC2CCN(c3nc4c(c(NC5CCOCC5)n3)[S+]([O-])CC4)CC2)cc1 (stereo not drawn) [Example 269]

Further lines, the compound ahead of its results:

Compound	inhibition at 1 µM [%]
[O-][S+]1CCc2nc(N3CCC(Oc4ccc(Cl)c(Cl)c4)CC3)nc(NC3CCOCC3)c21 (stereo not drawn) [Example 181]	92
Cn1c(C2CCN(c3nc4c(c(NC5CCOCC5)n3)[S+]([O-])CC4)CC2)nc2ccccc21 (stereo not drawn) [Example 212]	93
